Results reported in US11766422B2, “Galloylated procyanidins for treating endovascular dysfunction and increasing blood flow” (UNIVERSITY OF SOUTH FLORIDA, priority 2018, dated 2023).
Read-outs that look alike come from different tables or passages of the source.

Legend:
[1] = system: HL-60 cells; conditions: Control: Untreated cells; cited from earlier work
[2] = system: erythrocytes; conditions: Control: Untreated erythrocytes; cited from earlier work
[3] = system: MCF-7 and MDA-MB231 cells; conditions: Control: Untreated cells; cited from earlier work
[4] = system: K562 cells; conditions: cited from earlier work
[5] = system: LNCaP and DU145 cells; conditions: Control: Untreated cells; cited from earlier work
[6] = target: T1, rat liver microsomal 5α-reductase (Rattus norvegicus, UniProt P24008); conditions: cited from earlier work
T1 sequence (P24008 1-259): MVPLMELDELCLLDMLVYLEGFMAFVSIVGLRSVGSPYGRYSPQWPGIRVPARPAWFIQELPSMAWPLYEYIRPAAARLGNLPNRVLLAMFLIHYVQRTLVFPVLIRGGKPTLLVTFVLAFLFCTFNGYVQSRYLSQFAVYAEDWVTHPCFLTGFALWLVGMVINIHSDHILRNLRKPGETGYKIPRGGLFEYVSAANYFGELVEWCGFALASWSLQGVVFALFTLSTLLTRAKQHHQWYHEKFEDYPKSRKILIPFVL

[7] = system: S-G cells (immortalized gum epithelial cells); conditions: cited from earlier work
[8] = target: type 1 ryanodine receptor (Homo sapiens, UniProt P21817); conditions: Control: Untreated receptor; cited from earlier work
[9] = target: fatty acid synthase (Homo sapiens, UniProt P49327); conditions: Control: Untreated enzyme; cited from earlier work
Chain of fatty acid synthase (P49327 whole entry, species assumed): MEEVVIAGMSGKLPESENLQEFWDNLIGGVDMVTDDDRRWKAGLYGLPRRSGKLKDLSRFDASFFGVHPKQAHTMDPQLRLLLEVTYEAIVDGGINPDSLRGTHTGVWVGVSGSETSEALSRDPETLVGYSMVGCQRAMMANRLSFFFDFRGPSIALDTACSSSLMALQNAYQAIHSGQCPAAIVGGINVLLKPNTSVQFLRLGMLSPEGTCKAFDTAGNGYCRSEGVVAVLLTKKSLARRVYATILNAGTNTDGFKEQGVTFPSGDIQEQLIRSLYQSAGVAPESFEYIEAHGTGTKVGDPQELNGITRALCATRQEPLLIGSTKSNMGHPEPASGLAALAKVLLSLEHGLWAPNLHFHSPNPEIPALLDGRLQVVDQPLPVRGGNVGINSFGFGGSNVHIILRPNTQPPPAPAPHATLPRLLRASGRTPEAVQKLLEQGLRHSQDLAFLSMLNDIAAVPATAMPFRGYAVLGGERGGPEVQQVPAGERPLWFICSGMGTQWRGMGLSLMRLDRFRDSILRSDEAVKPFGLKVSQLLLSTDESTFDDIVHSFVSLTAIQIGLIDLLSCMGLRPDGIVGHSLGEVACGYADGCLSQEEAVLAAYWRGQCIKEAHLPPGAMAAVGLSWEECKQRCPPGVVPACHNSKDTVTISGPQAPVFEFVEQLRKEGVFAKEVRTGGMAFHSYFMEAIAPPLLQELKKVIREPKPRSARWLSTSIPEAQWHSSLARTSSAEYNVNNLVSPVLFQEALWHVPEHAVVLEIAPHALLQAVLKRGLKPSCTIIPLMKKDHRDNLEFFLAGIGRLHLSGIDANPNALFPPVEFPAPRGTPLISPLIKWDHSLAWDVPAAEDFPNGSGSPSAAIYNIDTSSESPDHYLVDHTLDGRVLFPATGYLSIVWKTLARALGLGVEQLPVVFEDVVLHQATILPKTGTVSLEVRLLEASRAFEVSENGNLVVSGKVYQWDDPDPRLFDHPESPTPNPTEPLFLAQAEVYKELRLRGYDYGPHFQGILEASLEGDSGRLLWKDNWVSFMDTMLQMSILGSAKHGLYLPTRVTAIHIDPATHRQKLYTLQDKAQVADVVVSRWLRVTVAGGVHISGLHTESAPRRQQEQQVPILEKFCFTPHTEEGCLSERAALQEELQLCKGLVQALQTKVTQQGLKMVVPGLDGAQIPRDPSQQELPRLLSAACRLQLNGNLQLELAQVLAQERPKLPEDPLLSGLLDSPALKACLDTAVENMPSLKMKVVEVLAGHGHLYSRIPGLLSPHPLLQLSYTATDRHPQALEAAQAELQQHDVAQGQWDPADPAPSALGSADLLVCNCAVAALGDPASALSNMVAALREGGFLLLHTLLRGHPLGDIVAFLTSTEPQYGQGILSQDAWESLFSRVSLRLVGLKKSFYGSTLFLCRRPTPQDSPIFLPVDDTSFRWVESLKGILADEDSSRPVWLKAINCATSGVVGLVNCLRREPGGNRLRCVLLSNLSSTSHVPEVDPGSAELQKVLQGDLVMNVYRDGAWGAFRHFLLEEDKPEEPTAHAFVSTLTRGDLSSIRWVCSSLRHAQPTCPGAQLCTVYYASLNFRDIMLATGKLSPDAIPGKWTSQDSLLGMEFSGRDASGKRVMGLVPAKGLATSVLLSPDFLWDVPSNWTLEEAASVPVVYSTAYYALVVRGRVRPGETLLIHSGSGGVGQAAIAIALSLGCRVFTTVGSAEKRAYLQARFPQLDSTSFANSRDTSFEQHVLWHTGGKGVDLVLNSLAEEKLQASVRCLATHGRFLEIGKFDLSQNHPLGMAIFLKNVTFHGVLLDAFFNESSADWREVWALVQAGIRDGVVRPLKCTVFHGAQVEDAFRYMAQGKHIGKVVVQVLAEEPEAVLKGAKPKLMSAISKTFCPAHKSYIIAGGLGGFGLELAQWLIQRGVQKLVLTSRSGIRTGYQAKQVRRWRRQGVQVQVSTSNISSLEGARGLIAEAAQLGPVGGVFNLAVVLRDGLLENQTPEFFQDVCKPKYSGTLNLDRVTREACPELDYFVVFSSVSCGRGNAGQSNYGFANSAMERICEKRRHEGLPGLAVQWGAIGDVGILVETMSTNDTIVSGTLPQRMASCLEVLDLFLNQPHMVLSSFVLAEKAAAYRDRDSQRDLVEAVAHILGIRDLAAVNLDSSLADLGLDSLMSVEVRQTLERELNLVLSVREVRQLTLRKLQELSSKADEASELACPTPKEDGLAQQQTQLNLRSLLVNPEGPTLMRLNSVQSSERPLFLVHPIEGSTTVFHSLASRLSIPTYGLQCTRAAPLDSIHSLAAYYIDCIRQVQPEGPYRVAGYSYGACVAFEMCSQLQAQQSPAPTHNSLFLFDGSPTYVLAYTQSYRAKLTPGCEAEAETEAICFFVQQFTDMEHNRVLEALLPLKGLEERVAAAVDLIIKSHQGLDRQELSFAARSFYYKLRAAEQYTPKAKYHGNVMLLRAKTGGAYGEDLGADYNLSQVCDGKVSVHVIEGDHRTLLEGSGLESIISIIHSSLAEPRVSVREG

[10] = system: human umbilical vein endothelial cells (HUVEC); conditions: galloyl-derivative compared to non-galloylated parent molecule; cited from earlier work
[11] = system: NA/H exchanger; conditions: Control: Untreated exchanger; cited from earlier work
[12] = system: NA+/K+ ATPase pump; conditions: Control: Untreated pump; cited from earlier work
[13] = target: T2, pancreatic lipase (Homo sapiens, UniProt P16233); conditions: Control: Untreated enzyme; cited from earlier work
T2 sequence (P16233 17-465): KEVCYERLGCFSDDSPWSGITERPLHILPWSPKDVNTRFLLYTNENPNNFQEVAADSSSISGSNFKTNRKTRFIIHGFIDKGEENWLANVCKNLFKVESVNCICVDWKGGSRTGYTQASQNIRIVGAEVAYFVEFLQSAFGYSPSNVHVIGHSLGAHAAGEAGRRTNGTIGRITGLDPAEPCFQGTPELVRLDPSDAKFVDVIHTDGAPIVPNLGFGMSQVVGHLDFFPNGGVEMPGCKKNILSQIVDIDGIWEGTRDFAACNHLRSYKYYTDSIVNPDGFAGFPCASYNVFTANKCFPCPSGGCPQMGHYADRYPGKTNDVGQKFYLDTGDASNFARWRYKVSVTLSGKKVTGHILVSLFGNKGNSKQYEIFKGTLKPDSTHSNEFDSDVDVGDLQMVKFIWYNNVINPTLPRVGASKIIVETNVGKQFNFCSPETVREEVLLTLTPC

[14] = system: HUVEC; conditions: Control: Untreated cells; cited from earlier work
[15] = system: HUVEC; conditions: cited from earlier work
[16] = system: heme oxygenase 1 in RAW264, 7 cells; conditions: galloyl-derivative compared to non-galloylated parent molecule; cited from earlier work
[17] = system: HL-60 cells; conditions: Control: Untreated cells; cited from earlier work; remark: listed apart in the source
[18] = Control: C, EC; cited from earlier work
[19] = system: fatty acid synthase expression, MCF-7 cells; conditions: Control: Untreated cells; cited from earlier work
[20] = system: RAW264.7 mouse cells; test: Nitric Oxide Assay (DAF-FM fluorescence, confocal microscopy); type: cell-based
Protocol: Drug Preparation. […] The current formulation, L-arginine (COMPOUND SOLUTIONS) and L-citrulline DL-malate 2:1 (COMPOUND SOLUTIONS) were each prepared at 300 mg/ml in DMEM without phenol red (CORNING) and stored at −20° C. until use. Arginine silicate and lipopolysaccharides from E. coli 0111: B4 (LPS; SIGMA ALDRICH) were dissolved in DMSO to 300 mg/ml and 50 μg/ml, respectively, and stored frozen until use. 4,5-Diaminofluorescein Diacetate (DAF-FM) was diluted from 5 mM stocks in DMSO.
Cell Culture. […] All experiments were completed with cultures under 8 passages, and cell densities were maintained between 0.2×10^6 and 0.8×10^6 cells per ml during maintenance.
Cells were triturated with complete growth medium. Density was determined under phase-contrast using 0.2% Trypan blue. Three viable cell counts were performed on the hemocytometer and averaged.
Nitric Oxide Assay. […] DAF-FM diacetate is essentially non-fluorescent until it reacts with nitric oxide to form a fluorescent benzotriazole. DAF-FM diacetate is cell-permeant and passively diffuses across cellular membranes. Once inside cells, it is deacetylated by intracellular esterases to become DAF-FM.
Here, cells (50,000) in 3 ml of complete growth medium were plated onto 35-mm glass bottom dishes (MATTEK) pre-coated with poly-D-lysine. Cells were grown for 24 h and washed twice in HBS. Three (3) ml of serum-free medium was added. Cells were then treated with 1 μM lipopolysaccharide or various concentrations of test agents and grown for an additional 30 min. DAF-FM was added to cells to a final concentration of 2 μM and incubated for an additional 30 min.
For confocal microscopy, medium was removed, and cells were washed once in HBS and replaced with 3 ml Live Cell Imaging solution (INVITROGEN). […] For cell treatments resulting in little or no fluorescence, 4′,6-diamidino-2-phenylindole (DAPI, MOLECULAR PROBES) was added at a final concentration of 300 nM to an additional sample. Images were captured and analyzed as tiff formatted files. […] For determining fluorescence, the entire image was analyzed for each image taken.

For `O=C(OC[C@H]1O[C@@H](OC(=O)c2cc(O)c(O)c(O)c2)[C@H](OC(=O)c2cc(O)c(O)c(O)c2)[C@@H](OC(=O)c2cc(O)c(O)c(O)c2)[C@@H]1OC(=O)c1cc(O)c(O)c(O)c1)c1cc(O)c(O)c(O)c1` [PGG], the “Effect: Reduction of cell viability in HL-60 cells” value [1] is given as “↑↑↑”, the “Effect: Triggering of suicidal erythrocyte death” value [2] is given as “↑↑” and the “Effect: Growth inhibition of MCF-7 and MDA-MB231 cells” value [3] is given as “↑↑↑”. For the same compound, the “Effect: Cytotoxicity towards K562 cells” value [4] was “↑”, the “Effect: Inhibitory effects on LNCaP and DU145 cells” value [5] was “↑↑↑” and the “Effect: Inhibition of rat liver microsomal 5α-reductase” value [6] was “↑↑↑”.

For `Oc1cc(O)c2c(c1)O[C@H](c1ccc(O)c(O)c1)[C@H](O)C2` [EC, epicatechin], the “Effect: Cytotoxicity towards S-G cells (immortalized gum epithelial cells)” value (“Effect: Cytotoxicity towards S-G cells” below) [7] is listed as “↑”.

For `O=C(O[C@@H]1Cc2c(O)cc(O)cc2O[C@@H]1c1ccc(O)c(O)c1)c1cc(O)c(O)c(O)c1` [ECG, Epicatechin gallate], the “Effect: Activiation of type 1 ryanodine receptor” value (“Effect: Activiation” below) [8] is listed as “↑↑↑”, the “Effect: Inhibition of fatty acid synthase activity” value [9] is listed as “↑↑↑” and the “Effect: Cytotoxicity towards S-G cells” value ([7]; Control: Untreated cells) is listed as “↑↑↑”. The “Effect: Inhibition of VEGF-induced proliferation migration and tube formation of human umbilical vein endothelial cells (HUVEC)” value [10] was “↑^c”, the “Effect: Inhibition of NA/H exchanger activity” value [11] was “↑↑” and the “Effect: Inhibition of NA+/K+ ATPase pump activity” value [12] was “↑↑”. The “Effect: Reduction of pancreatic lipase activity in vitro” value (“Effect: Reduction … in vitro” for short) [13] was “↑↑” and the “Effect: Inhibition of VEGF-induced proliferation of HUVEC” value (“Effect: Inhibition … of HUVEC” below) [14] was “↑↑”.

For `O=C(Oc1c(-c2ccc(O)c(O)c2)oc2cc(O)cc(O)c2c1=O)c1cc(O)c(O)c(O)c1` [3GQ], the “Effect: Cytotoxicity, inhibition of proliferation, migration and tube formation of HUVEC” value (“Effect: Cytotoxicity, inhibition” for short) [15] is listed as “↑↑” and the “Effect: Induction of heme oxygenase 1 in RAW264, 7 cells” value [16] is listed as “↓↓”.

In the case of `O=C(O[C@@H]1Cc2c(O)cc(O)cc2O[C@H]1c1cc(O)c(O)c(O)c1)c1cc(O)c(O)c(O)c1` [GCG], the “Effect: Reduction … in vitro” value [13] is listed as “↑↑↑”.

In the case of `O=C(O)c1cc(O)c(O)c(O)c1` [GA, gallic acid], the “Effect: Induction of apoptosis in HL-60 cells” value [17] is given as “↑↑” and the “Effect: Inhibition of fatty acid synthase activity” value [9] is given as “↑”.

In the case of `O=C(O[C@@H]1Cc2c(O)cc(O)cc2O[C@@H]1c1cc(O)c(O)c(O)c1)c1cc(O)c(O)c(O)c1` [EGCG, epigallocatechin gallate], the “Effect: Reduction of cell viability in HL-60 cells” value [1] is listed as “↑↑”, the “Effect: Cytotoxicity, inhibition” value ([15]; galloyl-derivative compared to non-galloylated parent molecule) is listed as “↑↑^c” and the “Effect: Activiation” value [8] is listed as “↑↑↑”. The “Effect: Inhibition of fatty acid synthase activity” value [9] was “↑↑↑”, the “Effect: Cytotoxicity towards S-G cells” value [7] was “↑↑↑” and the “Effect: Trolox-equivalent antioxidant activity” value [18] was “↑↑”. The “Effect: Inhibition of NA/H exchanger activity” value [11] was “↑”, the “Effect: Inhibition of NA+/K+ ATPase pump activity” value [12] was “↑↑” and the “Effect: Suppression of fatty acid synthase expression n MCF-7 cells” value (“Effect: Suppression” for short) [19] was “↑↑↑”. The “Effect: Inhibition of rat liver microsomal 5α-reductase” value ([6]; Control: Untreated enzyme) was “↑”, the “Effect: Reduction … in vitro” value [13] was “↑↑” and the “Effect: Inhibition … of HUVEC” value [14] was “↑↑”.

In the case of `O=C(O[C@H]1Cc2c(O)cc(O)cc2O[C@@H]1c1ccc(O)c(O)c1)c1cc(O)c(O)c(O)c1` [CG], the “Effect: Cytotoxicity towards S-G cells” value ([7]; Control: Untreated cells) is listed as “↑↑↑” and the “Effect: Reduction … in vitro” value [13] is listed as “↑↑↑”.

In the case of `N=C(N)NCCC[C@H](N)C(=O)O` [L-arginine], the “mean fluorescence (DAF-FM)” value [20] is reported as “noticeably low mean fluorescence”.

For “lipopolysaccharides from E. coli 0111: B4 [LPS]”, the “DAF-FM fluorescence (nitric oxide levels)” value ([20]; RAW264.7 cells, 1 ng/ml incubated for 30 minutes) was “bright and consistent DAF-FM fluorescence”.

In the case of catechin, the “Effect: Inhibition of fatty acid synthase activity” value [9] is given as “•” and the “Effect: Suppression” value [19] is given as “•”.

In the case of `O=C(Oc1cc(O)c2c(c1)O[C@H](c1ccc(O)c(O)c1)[C@@H](O)C2=O)c1cc(O)c(O)c(O)c1` [7GT], the “Effect: Cytotoxicity, inhibition” value [15] is given as “↑↑” and the “Effect: Induction of heme oxygenase 1 in RAW264, 7 cells” value [16] is given as “↑↑↑”.

For `Oc1cc(O)c2c(c1)O[C@H](c1cc(O)c(O)c(O)c1)[C@H](O)C2` [EGC], the “Effect: Activiation” value [8] is given as “↑”, the “Effect: Inhibition of fatty acid synthase activity” value [9] is given as “↑” and the “Effect: Cytotoxicity towards S-G cells” value ([7]; Control: Untreated cells) is given as “↑↑”. For the same compound, the “Effect: Inhibition of NA/H exchanger activity” value [11] was “↑↑↑”, the “Effect: Inhibition of NA+/K+ ATPase pump activity” value [12] was “↑” and the “Effect: Suppression” value [19] was “•”. The “Effect: Inhibition … of HUVEC” value [14] was “↑”.

In the case of `NC(=O)NCCC[C@H](N)C(=O)O.NC(=O)NCCC[C@H](N)C(=O)O.O=C(O)CC(O)C(=O)O` (racemic) [L-citrulline-DL-malate 2:1, L-citrulline DL-malate 2:1], the “mean fluorescence (DAF-FM)” value ([20]; RAW264.7 cells, 600 μg/ml samples) is reported as “noticeably low mean fluorescence”.
